Experiment [1] relates to Spinach U50C (RNA, aptamer) GGGAACACAAUAAUAAAACUUACAAACAAGAAAAAAAAGACGCGACUGAAUGAAAUGGUGAAGGACGGGUCCAGCUGCUUCGGCAGCCUGUUGAGUAGAGUGUGAGCUCCGUAACUAGUCGCGUC
Nature of the experiment: on-chip fluorescence titration (mLSI pull-down). Particulars: 125 mM KCl, 5 mM MgCl2; 40 mM HEPES, 5% DMSO; temperature of this value not stated; immobilised RNA.

The subject of experiment [2] is Spinach with GAAA tetraloop (RNA, aptamer) GGGAACACAAUAAUAAAACUUACAAACAAGAAAAAAAAGACGCGACUGAAUGAAAUGGUGAAGGACGGGUCCAGCUGCGAAAGCAGCUUGUUGAGUAGAGUGUGAGCUCCGUAACUAGUCGCGUC
Description: on-chip fluorescence titration and melting. Particulars: 125 mM KCl, 5 mM MgCl2; 40 mM HEPES, 5% DMSO; comparable to UUCG loop; immobilised RNA.

Experiment [3] concerns wt Spinach without anchor sequence (in solution) (RNA, aptamer) GACGCGACUGAAUGAAAUGGUGAAGGACGGGUCCAGCUGCUUCGGCAGCUUGUUGAGUAGAGUGUGAGCUCCGUAACUAGUCGCGUC
Nature of the experiment: solution binding assay (off chip). Particulars: buffer and temperature not stated.

The test system of experiment [4] is Spinach with GUGA tetraloop (RNA, aptamer) GGGAACACAAUAAUAAAACUUACAAACAAGAAAAAAAAGACGCGACUGAAUGAAAUGGUGAAGGACGGGUCCAGCUGCGUGAGCAGCUUGUUGAGUAGAGUGUGAGCUCCGUAACUAGUCGCGUC
Nature of the experiment: on-chip fluorescence. Particulars: 125 mM KCl, 5 mM MgCl2; loss of fluorescence attributed to misfolding; up to 43.5 μM DFHBI.

Experiment [5] deals with wt Spinach with anchor sequence (in solution) (RNA, aptamer) GGGAACACAAUAAUAAAACUUACAAACAAGAAAAAAAAGACGCGACUGAAUGAAAUGGUGAAGGACGGGUCCAGCUGCUUCGGCAGCUUGUUGAGUAGAGUGUGAGCUCCGUAACUAGUCGCGUC
Nature of the experiment: solution binding assay (off chip). Particulars: buffer and temperature not stated.

In experiment [6] the test system is wt Spinach (87-nt, on chip, with 5' capture tag) (RNA, aptamer) GGGAACACAAUAAUAAAACUUACAAACAAGAAAAAAAAGACGCGACUGAAUGAAAUGGUGAAGGACGGGUCCAGCUGCUUCGGCAGCUUGUUGAGUAGAGUGUGAGCUCCGUAACUAGUCGCGUC
Description: on-chip fluorescence titration (mLSI pull-down). Particulars: 125 mM KCl, 5 mM MgCl2; 40 mM HEPES, 5% DMSO; temperature of this value not stated (19-28°C series); immobilised RNA.

Each structure is given as a SMILES string.

A word on the Kd: it is a measure of binding affinity in units of concentration. Low values mean a tighter complex, high ones a looser complex.

`CC1=N/C(=C\c2cc(F)c(O)c(F)c2)C(=O)N1C`: the Kd in experiment [1] was 0.45 µM; in experiment [3], 0.53 µM; in experiment [5] it was 0.68 µM; in experiment [6] it was 1.18 µM. The binding result in experiment [2] was “yes”; in experiment [4], “no”.
